Test results reported in PubChem BioAssay AID2060492 (Molecular Pharmacology Branch, DTP, NCI, 2025).

System: 695427-040-R-J1-PDC complex spheroids, viability percent T/C
Assay: Anticancer human tumor 695427-040-R-J1-PDC patient-derived colon adenocarcinoma cell line growth inhibition [GQUAD]
Conditions: for IC50: curve of first compound; for viability, T/C: stronger effect = lower value
Outline: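 Tumor cells were grown as complex spheroids with HUVEC endothelial cells and mesenchymal stem cells as stroma. G-quadruplex stabilizers were combined with targeted agents over half-log dilutions from near the clinical Cmax, or from 10 microM.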

[1] = second compound 0.0316 µM, first compound 0.0316 µM
[2] = second compound 0.0316 µM, first compound 0.1 µM
[3] = second compound 0.0316 µM, first compound 0.316 µM
[4] = second compound 0.0316 µM, first compound 1 µM
[5] = second compound 0.0316 µM, first compound 3.16 µM
[6] = second compound 0.0316 µM, first compound 10 µM
[7] = second compound 0.1 µM, first compound 0.0316 µM
[8] = second compound 0.1 µM, first compound 0.1 µM
[9] = second compound 0.1 µM, first compound 0.316 µM
[10] = second compound 0.1 µM, first compound 1 µM
[11] = second compound 0.1 µM, first compound 3.16 µM
[12] = second compound 0.1 µM, first compound 10 µM
[13] = second compound 0.316 µM, first compound 0.0316 µM
[14] = second compound 0.316 µM, first compound 0.1 µM
[15] = second compound 0.316 µM, first compound 0.316 µM
[16] = second compound 0.316 µM, first compound 1 µM
[17] = second compound 0.316 µM, first compound 3.16 µM
[18] = second compound 0.316 µM, first compound 10 µM
[19] = second compound 1 µM, first compound 0.0316 µM
[20] = second compound 1 µM, first compound 0.1 µM
[21] = second compound 1 µM, first compound 0.316 µM
[22] = second compound 1 µM, first compound 1 µM
[23] = second compound 1 µM, first compound 3.16 µM
[24] = second compound 1 µM, first compound 10 µM
[25] = second compound 3.16 µM, first compound 0.0316 µM
[26] = second compound 3.16 µM, first compound 0.1 µM
[27] = second compound 3.16 µM, first compound 0.316 µM
[28] = second compound 3.16 µM, first compound 1 µM
[29] = second compound 3.16 µM, first compound 3.16 µM
[30] = second compound 3.16 µM, first compound 10 µM
[31] = second compound 10 µM, first compound 0.0316 µM
[32] = second compound 10 µM, first compound 0.1 µM
[33] = second compound 10 µM, first compound 0.316 µM
[34] = second compound 10 µM, first compound 1 µM
[35] = second compound 10 µM, first compound 3.16 µM
[36] = second compound 10 µM, first compound 10 µM
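Note: spheroids exposed to compounds for seven days before readout.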

SMILES: CC1COCCN1c1cc(-c2ccnn2C)c2ccnc(-c3ccn[nH]3)c2n1 (stereo not drawn) + Cc1[nH]c2ccc(F)cc2c1-c1nc2c3cccnc3c3ncccc3c2[nH]1
- IC50 (second compound 0.0316 µM): 289 nM
- IC50 (second compound 0.1 µM): 271 nM
- IC50 (second compound 0.316 µM): 259 nM
- IC50 (second compound 1 µM): 136 nM
- IC50 (second compound 3.16 µM): 56.4 nM
- IC50 (second compound 10 µM): 69.7 nM
- viability, T/C [1]: 86.8%
- viability, T/C [2]: 63.2%
- viability, T/C [3]: 47.6%
- viability, T/C [4]: 42%
- viability, T/C [5]: 29.8%
- viability, T/C [6]: 27.2%
- viability, T/C [7]: 91.9%
- viability, T/C [8]: 63.6%
- viability, T/C [9]: 53.3%
- viability, T/C [10]: 30.3%
- viability, T/C [11]: 34.9%
- viability, T/C [12]: 30.4%
- viability, T/C [13]: 78.5%
- viability, T/C [14]: 75.5%
- viability, T/C [15]: 44.7%
- viability, T/C [16]: 28.5%
- viability, T/C [17]: 28.5%
- viability, T/C [18]: 30.1%
- viability, T/C [19]: 68.5%
- viability, T/C [20]: 54.5%
- viability, T/C [21]: 37.5%
- viability, T/C [22]: 31.8%
- viability, T/C [23]: 31.4%
- viability, T/C [24]: 29.7%
- viability, T/C [25]: 57.8%
- viability, T/C [26]: 41.7%
- viability, T/C [27]: 34.2%
- viability, T/C [28]: 31%
- viability, T/C [29]: 25.5%
- viability, T/C [30]: 27.1%
- viability, T/C [31]: 57.9%
- viability, T/C [32]: 47.5%
- viability, T/C [33]: 35.4%
- viability, T/C [34]: 29.6%
- viability, T/C [35]: 27.3%
- viability, T/C [36]: 20.7%

SMILES: CC1COCCN1c1cc(C2(O)CC3CCC(C2)O3)c2cnn(-c3ccn[nH]3)c2n1 (stereo not drawn) + Cc1[nH]c2ccc(F)cc2c1-c1nc2c3cccnc3c3ncccc3c2[nH]1
- IC50 (second compound 0.0316 µM): 735 nM
- IC50 (second compound 0.1 µM): 590 nM
- IC50 (second compound 0.316 µM): 569 nM
- IC50 (second compound 1 µM): 290 nM
- IC50 (second compound 3.16 µM): 253 nM
- IC50 (second compound 10 µM): 455 nM
- viability, T/C [1]: 83.2%
- viability, T/C [2]: 84.2%
- viability, T/C [3]: 65.7%
- viability, T/C [4]: 42.5%
- viability, T/C [5]: 36%
- viability, T/C [6]: 24.6%
- viability, T/C [7]: 93.8%
- viability, T/C [8]: 77.5%
- viability, T/C [9]: 70.4%
- viability, T/C [10]: 31.4%
- viability, T/C [11]: 37.6%
- viability, T/C [12]: 28.1%
- viability, T/C [13]: 85.2%
- viability, T/C [14]: 64%
- viability, T/C [15]: 60.6%
- viability, T/C [16]: 41.7%
- viability, T/C [17]: 37.5%
- viability, T/C [18]: 30.2%
- viability, T/C [19]: 86.2%
- viability, T/C [20]: 55.8%
- viability, T/C [21]: 55.2%
- viability, T/C [22]: 33.6%
- viability, T/C [23]: 41%
- viability, T/C [24]: 21.2%
- viability, T/C [25]: 67%
- viability, T/C [26]: 55.8%
- viability, T/C [27]: 50.9%
- viability, T/C [28]: 34.2%
- viability, T/C [29]: 33.2%
- viability, T/C [30]: 17.4%
- viability, T/C [31]: 59%
- viability, T/C [32]: 59.8%
- viability, T/C [33]: 61.7%
- viability, T/C [34]: 27.9%
- viability, T/C [35]: 30.4%
- viability, T/C [36]: 22.3%

SMILES: CC1COCCN1c1cc(C2(S(C)(=N)=O)CC2)nc(-c2ccnc3[nH]ccc23)n1 (stereo not drawn) + Cc1[nH]c2ccc(F)cc2c1-c1nc2c3cccnc3c3ncccc3c2[nH]1
- IC50 (second compound 0.0316 µM): > 10000 nM
- IC50 (second compound 0.1 µM): > 10000 nM
- IC50 (second compound 0.316 µM): > 10000 nM
- IC50 (second compound 1 µM): > 10000 nM
- IC50 (second compound 3.16 µM): > 10000 nM
- IC50 (second compound 10 µM): > 10000 nM
- viability, T/C [1]: 99.3%
- viability, T/C [2]: 101%
- viability, T/C [3]: 87.6%
- viability, T/C [4]: 73.9%
- viability, T/C [5]: 76.9%
- viability, T/C [6]: 57.4%
- viability, T/C [7]: 103%
- viability, T/C [8]: 72.5%
- viability, T/C [9]: 102%
- viability, T/C [10]: 89.3%
- viability, T/C [11]: 73.2%
- viability, T/C [12]: 62.2%
- viability, T/C [13]: 87.9%
- viability, T/C [14]: 80.1%
- viability, T/C [15]: 84.8%
- viability, T/C [16]: 84.9%
- viability, T/C [17]: 74.6%
- viability, T/C [18]: 61.5%
- viability, T/C [19]: 70.5%
- viability, T/C [20]: 71.7%
- viability, T/C [21]: 70.3%
- viability, T/C [22]: 97%
- viability, T/C [23]: 83%
- viability, T/C [24]: 65.8%
- viability, T/C [25]: 61.9%
- viability, T/C [26]: 84%
- viability, T/C [27]: 75.9%
- viability, T/C [28]: 81.8%
- viability, T/C [29]: 71.9%
- viability, T/C [30]: 61.2%
- viability, T/C [31]: 66%
- viability, T/C [32]: 67.9%
- viability, T/C [33]: 80.8%
- viability, T/C [34]: 82%
- viability, T/C [35]: 67.6%
- viability, T/C [36]: 54.3%

SMILES: COc1ccc([C@@H](O)c2cc(-c3ncnc4cc(N5CCOCC5)ccc34)c(F)cc2Cl)nn1 + Cc1[nH]c2ccc(F)cc2c1-c1nc2c3cccnc3c3ncccc3c2[nH]1
- IC50 (second compound 0.0316 µM): 3620 nM
- IC50 (second compound 0.1 µM): > 10000 nM
- IC50 (second compound 0.316 µM): > 10000 nM
- IC50 (second compound 1 µM): 9520 nM
- IC50 (second compound 3.16 µM): 5460 nM
- IC50 (second compound 10 µM): 4230 nM
- viability, T/C [1]: 105%
- viability, T/C [2]: 82.6%
- viability, T/C [3]: 80.9%
- viability, T/C [4]: 50.7%
- viability, T/C [5]: 58.2%
- viability, T/C [6]: 40.8%
- viability, T/C [7]: 103%
- viability, T/C [8]: 81.3%
- viability, T/C [9]: 83.5%
- viability, T/C [10]: 56.6%
- viability, T/C [11]: 72.1%
- viability, T/C [12]: 46.7%
- viability, T/C [13]: 90.7%
- viability, T/C [14]: 89.8%
- viability, T/C [15]: 80.3%
- viability, T/C [16]: 72%
- viability, T/C [17]: 71.5%
- viability, T/C [18]: 51.2%
- viability, T/C [19]: 74.2%
- viability, T/C [20]: 78.5%
- viability, T/C [21]: 83.9%
- viability, T/C [22]: 68.9%
- viability, T/C [23]: 73.9%
- viability, T/C [24]: 48.9%
- viability, T/C [25]: 64.1%
- viability, T/C [26]: 85.6%
- viability, T/C [27]: 72.9%
- viability, T/C [28]: 58.1%
- viability, T/C [29]: 66.6%
- viability, T/C [30]: 36.4%
- viability, T/C [31]: 74%
- viability, T/C [32]: 65.4%
- viability, T/C [33]: 82.8%
- viability, T/C [34]: 60.6%
- viability, T/C [35]: 55.5%
- viability, T/C [36]: 38.7%
